Residues, ends and D or L forms follow the SMILES beside them.
Assays:
[1] = rat
Protocol: Lactulose is a non-metabolizable sugar that is poorly absorbed from the gastrointestinal tract. In gastrointestinal disorders such as inflammatory bowel disease, lactulose is taken up through gaps in the mucosal membrane, allowing its excretion in the urine. The amount of urinary lactulose is therefore a measure of "leakage" across the gut mucosal barrier (Menzies, Biochem. Soc. Trans. […]:1042-1047 (1974)).
Rats were treated with 5-fluorouracil as described in Example 8, above. Lactulose, 2 ml iso-osmolar solution of 100 mg/ml, was infused by gavage and urine was collected over the subsequent 24 hr and frozen. Urinary lactulose was determined enzymatically as described by Ziegler et al. (Arch. Surg. 123:1313-1319 (1988)).

[2] = Parenteral nutrition after 5-FU injury in rats: intestinal and hematological indices; assay type: in vivo; conditions: all drug-treated animals, independent of diet
Protocol: Rats were catheterized as previously described and after a minimum of 3 hr following recovery from anesthesia, groups of animals received 100, 150 or 200 mg/kg of 5-FU by i.p. injection. […] The nutrition infusion, started 4 hr after 5-FU or saline, was continued for 4 d. at a rate of 46 ml/24 hr.
Blood and intestinal tissue were sampled and prepared for analysis as described in the examples above. The hemoglobin, white blood cell and platelet numbers were determined as measures of the general hematological toxicity of the various doses of 5-FU.
All analyses were performed as previously described in Examples 6 and 7. Statistical analyses were performed using two-way analysis of variance comparing both diets and dose of 5-FU. Unpaired t tests were used to compare two treatment groups at one dose of 5-FU. Differences were considered statistically significant at a p value of <0.05.

[3] = Urinary excretion and nitrogen balance after laparotomy in dogs; assay type: in vivo, dog; conditions: projected intake 0.312 gm N/24 hr/kg
Protocol: Urine excreted during the 24 hours of infusion was collected in the closed urinary collecting system and stored in acidified, refrigerated containers. Aliquots were stored frozen at -20° C. for batch analysis.
All solutions were infused at the rate of 4 ml/minute/kg. Five control animals received 0.9% saline. Amino acid solutions (Table V) containing BCCA's at three different concentrations (11%, 22%, or 44% of total amino acids) were prepared by adding amino acids to an 8.5% standard amino acid formula, FreAmine III (American McGaw, Irvine, Calif.). The total BCAA infusion rates were 0.46, 0.92, and 1.84 grams/24 hours/kg, respectively. All three amino acid solutions were isonitrogenous, providing approximately 0.624 grams of nitrogen/24 hours/kg, with a constant ratio of valine to leucine to isoleucine (1: 1.38:1.05). Nine animals received an 11% BCAA solution which was made by dissolving a mixture of non-essential amino acids (NEAA) in 2.13% FreAmine III to make a solution that provided 0.624 grams of nitrogen/24 hours/kg. […] Six animals received 4.25% FreAmine III alone (22% BCAA). The final seven animals received 2.13% FreAmine III supplemented with enough BCAA's to make a 44% solution. […] All solutions were sterilized by passage through a 0.22 uM filter (Millipore, Millis, Mass.) and stored overnight at 4° C. prior to administration. […]

[4] = intravenous feeding regimen; cited from earlier work

Structure (SMILES): O=c1[nH]cc(F)c(=O)[nH]1 [5-FU, 5-fluorouracil]
- Gut permeability to lactulose [1]: increase gut permeability to lactulose
- Time of peak increase in gut permeability [1]: between 24 and 48
- Circulating white blood cell and platelet counts [2]: marked decline in the circulating white blood cell and platelet counts

Structure (SMILES): NC(=O)CC[C@H](N)C(=O)O [Glutamine, glutamine]
- Nitrogen balance [3]: -0.386 ± 0.086 gm/24 hr/kg
- Nitrogen excretion [3]: 0.709 ± 0.085 gm/24 hr/kg

Structure (SMILES): C[C@H](N)C(=O)N[C@@H](CCC(N)=O)C(=O)O [L-alanyl-L-glutamine] (H-Ala-Gln-OH)
- Postoperative nitrogen balance [4]: improve postoperative nitrogen balance
